Reference: US20240027453A1, “METHOD FOR DETECTION AND QUANTITATIVE MONITORING OF INFECTIONS WITH HERPESVIRUSES” (The Trustees of Princeton University, priority 2020, published 2024)
Like-named read-outs stand apart in the source and are kept apart here.

Test system: HCMV
Type: cell-based
Procedure: In example herpesvirus PRM assay methods shown herein, cell pellets were lysed in 2% SDS, 100 mM NaCl, 0.5 mM EDTA, 50 mM Tris, pH 8.2, and 50 μg of protein was reduced and alkylated with 25 mM TCEP and 50 mM CAM respectively for 20 min at 70° C. Proteins were then precipitated via methanol chloroform precipitation (Wessel & Flugg, Anal Biochem. 138(1):141-143, 1984), resuspended in 50 mM HEPES, pH 8.2 and digested overnight with trypsin (50:1 protein:enzyme w/w ratio). Digested peptides were desalted by SDB-RPS StageTip as previously described (Lum et al., Cell Syst., 7(6):[…], 2018; Greco et al., Methods Mol Biol 1410:39-63, 2016; Federspiel & Cristea, Methods Mol Biol., 1977:115-143, 2019).
Peptides (1.0 μg on column) were analyzed by LC-MS/MS using a Dionex Ultimate 3000 UHPLC coupled online to an EASYSpray ion source and a Q Exactive HF. Peptides were separated on an EASYSpray C18 column (75 μm×25 cm) heated to 50° C. using a linear gradient of 5% B to 32% B over 60 min at a flow rate of 250 nL/min and were ionized at 1.7 kv. Mobile phase A consisted of 0.1% FA in H2O and mobile phase B consisted of 0.1% FA, 2.9% H2O in ACN.
The PRM method was controlled by a peptide inclusion list with retention time windows of 6 min for selected precursor ions.
The PRM assay was developed and analyzed using the open-source software Skyline (Maclean et al., Bioinformatics 26(7):966-968, 2010). Summed area under the curve of 3-4 transitions per peptide was used for quantitation. Targeted peptides were normalized to host protein loading control peptides. Peptide values for each sample were scaled to the average of each peptide across all runs. The average of multiple peptides was used as the inferred value for the protein measurement when more than one peptide was quantified (Federspiel et al., PLoS Biol. 17(9):e3000437. Doi: 10.1371/journal.pbio.3000437). PRM quantitation data were graphed using the Python Seaborn and Matplotlib libraries.
MRC5 primary human fibroblasts (HFs) (ATCC CCL-171) were used as the model system for HSV-1 and HCMV infections and were cultured in complete growth medium (DMEM supplemented with 10% fetal bovine serum and 1% penicillin-streptomycin antibiotics) at 37° C. and 5% CO2. iSLK.219 cells harboring latent KSHV (a gift from Dr. Britt Glaunsinger, University of California, Berkeley) were grown in complete growth medium supplemented with 500 μg/ml hygromycin (ThermoFisher Scientific, 10687010) at 37° C. and 5% CO2. All cells were used for experiments within a maximum of 10 passages.
Wild type HSV-1 strain 17+ (a gift from Beate Sodeik, Hannover Medical School, Hannover, Germany) was propagated as previously described (Diner et al., 2015). Briefly, PO stocks were generated by electroporating pBAC-HSV-1 into U-2 OS cells. […] In a similar manner, wild type HCMV strain AD169 was produced from BAC electroporation into HFs and working stocks were propagated by infecting HFs at a low level. In both cases, cell-associated virus was released by sonication, combined with supernatant virus, then concentrated by ultracentrifugation (20,000 rpm, 2 hours, 4° C. with SW28 swinging bucket rotor [Beckman Coulter]) over a 10% ficoll (HSV-1) or 20% sorbitol (HCMV) cushion. Virus stock titers were determined by plaque assay for HSV-1 or tissue culture infectious dose (TCID50) for HCMV and infections were performed at a multiplicity of infection (MOI) of 3.
12 hours prior to virus infection or reactivation, cells were treated with either the small molecule drug or DMSO/PBS control at an equivalent volume. […] For infection cycles lasting longer than 24 hours, small molecule drugs were re-added to the cell culture medium every 24 hours. Upon collection, cells were rinsed with PBS, scraped into a microcentrifuge tube, pelleted by centrifugation, and rinsed again with PBS.

Structure (SMILES): Nc1ccn(C[C@@H](CO)OCP(=O)(O)O)c(=O)n1 [CDV, cidofovir]
- UL80 (P16753) protein, numerical value of heatmap FIG. 6C (L, timepoint 96): 1.017
- UL82 (P06726) protein, numerical value of heatmap FIG. 6C (L, timepoint 96): 0.9932
- UL87 (P16730) protein, numerical value of heatmap FIG. 6C (L, timepoint 96): 0.3187
- UL88 (P16731) protein, numerical value of heatmap FIG. 6C (L, timepoint 96): 0.6827
- UL94 (P16800) protein, numerical value of heatmap FIG. 6C (L, timepoint 96): 0.8521
- UL99 (P13200) protein, numerical value of heatmap FIG. 6C (L, timepoint 96): 0.9111
- UL103 (P16734) protein, numerical value of heatmap FIG. 6C (L, timepoint 96): 0.899
- UL117 (P16770) protein, numerical value of heatmap FIG. 6C (L, timepoint 96): 0.5858
- gH (P12824) protein, numerical value of heatmap FIG. 6C (L, timepoint 96): 1.268
- gL (P16832) protein, numerical value of heatmap FIG. 6C (L, timepoint 96): 0.676
- gM (P16733) protein, numerical value of heatmap FIG. 6C (L, timepoint 96): 0.9966
- gN (P16795) protein, numerical value of heatmap FIG. 6C (L, timepoint 96): 0.6947
- sp|P16809|IR11_HCMVA (P16809) protein, numerical value of heatmap FIG. 6C (L, timepoint 96): 0.6961
- CVC1 (P16799) protein, numerical value of heatmap FIG. 6C (L, timepoint 120): 0.8775
- GO (P16750) protein, numerical value of heatmap FIG. 6C (L, timepoint 120): 0.821
- MCP (P16729) protein, numerical value of heatmap FIG. 6C (L, timepoint 120): 1.664
- SCP (Q7M6N6) protein, numerical value of heatmap FIG. 6C (L, timepoint 120): 1.225
- TRM2 (P16792) protein, numerical value of heatmap FIG. 6C (L, timepoint 120): 1.244
- UL22A (P16845) protein, numerical value of heatmap FIG. 6C (L, timepoint 120): 1.64
- UL25 (P16761) protein, numerical value of heatmap FIG. 6C (L, timepoint 120): 1.445
- UL29 (P16764) protein, numerical value of heatmap FIG. 6C (L, timepoint 120): 1.329
- UL30 (P16765) protein, numerical value of heatmap FIG. 6C (L, timepoint 120): 0.9125
- UL31 (P16848) protein, numerical value of heatmap FIG. 6C (L, timepoint 120): 1.094
- UL43 (P16781) protein, numerical value of heatmap FIG. 6C (L, timepoint 120): 1.1093
- UL52 (P16793) protein, numerical value of heatmap FIG. 6C (L, timepoint 120): 1.493
- UL76 (P16725) protein, numerical value of heatmap FIG. 6C (L, timepoint 120): 0.7396
- UL79 (P16752) protein, numerical value of heatmap FIG. 6C (L, timepoint 120): 0.8598
- UL80 (P16753) protein, numerical value of heatmap FIG. 6C (L, timepoint 120): 1.249
- UL82 (P06726) protein, numerical value of heatmap FIG. 6C (L, timepoint 120): 1.469
- UL87 (P16730) protein, numerical value of heatmap FIG. 6C (L, timepoint 120): 0.5716
- UL88 (P16731) protein, numerical value of heatmap FIG. 6C (L, timepoint 120): 0.8088
- UL94 (P16800) protein, numerical value of heatmap FIG. 6C (L, timepoint 120): 1.266
- UL99 (P13200) protein, numerical value of heatmap FIG. 6C (L, timepoint 120): 1.628
- UL103 (P16734) protein, numerical value of heatmap FIG. 6C (L, timepoint 120): 1.157
- UL117 (P16770) protein, numerical value of heatmap FIG. 6C (L, timepoint 120): 0.837
- gH (P12824) protein, numerical value of heatmap FIG. 6C (L, timepoint 120): 1.57
- gL (P16832) protein, numerical value of heatmap FIG. 6C (L, timepoint 120): 1.175
- gM (P16733) protein, numerical value of heatmap FIG. 6C (L, timepoint 120): 1.476
- gN (P16795) protein, numerical value of heatmap FIG. 6C (L, timepoint 120): 1.396
- sp|P16809|IR11_HCMVA (P16809) protein, numerical value of heatmap FIG. 6C (L, timepoint 120): 0.7634
- TRX2 (P16728) protein, numerical value of heatmap FIG. 6C (LL, timepoint 24): 0.008754
- UL69 (P16749) protein, numerical value of heatmap FIG. 6C (LL, timepoint 24): 0.1676
- UL70 (P17149) protein, numerical value of heatmap FIG. 6C (LL, timepoint 24): 0.06824
- UL83 (P06725) protein, numerical value of heatmap FIG. 6C (LL, timepoint 24): 0.03389
- UL132 (P69338) protein, numerical value of heatmap FIG. 6C (LL, timepoint 24): 0.04048
- US15 (P09718) protein, numerical value of heatmap FIG. 6C (LL, timepoint 24): 0.5879
- DUT (P16824) protein, numerical value of heatmap FIG. 6C (LL, timepoint 48): 0.2905
- TRX1 (P16783) protein, numerical value of heatmap FIG. 6C (LL, timepoint 48): 0.01277
- TRX2 (P16728) protein, numerical value of heatmap FIG. 6C (LL, timepoint 48): 0.01952
- UL24 (P16760) protein, numerical value of heatmap FIG. 6C (LL, timepoint 48): 0.107
- UL40 (P16780) protein, numerical value of heatmap FIG. 6C (LL, timepoint 48): 0.3905
